Assay results: US9745282B2, “Indoline compounds as aldosterone synthase inhibitors” (Merck Sharp & Dohme Corp., priority 2012, dated 2017)

Assays:
Assay type in all cases: cell-based
human CYP11B2 [1] = biological target: T1, human CYP11B2 (Homo sapiens (Human), UniProt P19099); assay: V79-Human-CYP11B2 cell assay; conditions: V79 cells expressing human CYP11B2; 125 nM 11-deoxycorticosterone; aldosterone by HTRF
Experimental: (§1) V79 cell lines stably expressing the either the human CYP11B2 or the human CYP11B1 enzyme were generated using a standard transfection protocol. V79 cells were transfected with plasmids pTriEx3-Hygro-hCyp11B2 or pTriEx3-Hygro-hCyp11B1 using Lipofectamine2000 reagent. V79 cells that stably express the human CYP11B2 or human CYP11B1 enzyme were selected for and maintained in DMEM supplemented with 10% FBS and 400 μg/mL hygromycin for 2 weeks. Single cell clones were generated by infinite dilution in DMEM supplemented with 10% FBS and 400 μg/mL hygromycin until single colonies were obtained. […] For testing of inhibitors, cells were harvested at 80% confluency with 0.05% Trypsan-EDTA, washed once in PBS, and reconstituted in DMEM+0.1% BSA media at a cell concentration of 600,000 cells/mL for the CYP11B2 assay and 280,000 cells/mL for the CYP11B1 assay. 25 μL of cells were added to a 384 well tissue culture treated plate and mixed with 0.3 μL of inhibitor or DMSO (1% final DMSO concentration) for 1 hour at 37° C., 5% CO2. After pre-incubation with inhibitor, the reaction was initiated by adding 5 μL of substrate (final concentration of 125 nM 11-deoxycorticosterone for the CYP11B2 assay or 250 nM 11-deoxycortisol for the CYP11B1 assay). The reaction was carried out for 3 hours at 37° C., 5% CO2 and was stopped by harvesting the supernatants. The amount of product in the supernatant (aldosterone for CYP11B2 assay and cortisol for the CYP11B1 assay) was measured using HTRF-based assay kit (Aldosterone HTRF-CisBio#64ALDPEB, Cortisol HTRF-CisBio #63IDC002-CORT). IC50s for the inhibitor were determined by plotting the amount of product formed against the concentration of inhibitor using sigmoidal dose-response curve (variable slope) fit in GraphPad.

human CYP11B1 [2] = biological target: T2, human CYP11B1 (Homo sapiens (Human), UniProt P15538); assay: V79-Human-CYP11B1 cell assay; conditions: V79 cells expressing human CYP11B1; 250 nM 11-deoxycortisol; cortisol by HTRF
Experimental: V79 cell lines stably expressing the either the human CYP11B2 or the human CYP11B1 enzyme were generated using a standard transfection protocol. V79 cells were transfected with plasmids pTriEx3-Hygro-hCyp11B2 or pTriEx3-Hygro-hCyp11B1 using Lipofectamine2000 reagent. V79 cells that stably express the human CYP11B2 or human CYP11B1 enzyme were selected for and maintained in DMEM supplemented with 10% FBS and 400 μg/mL hygromycin for 2 weeks. Single cell clones were generated by infinite dilution in DMEM supplemented with 10% FBS and 400 μg/mL hygromycin until single colonies were obtained. Clones V79-hCYP11B2-CLE9 and V79-hCYP11B1-CL8C7, were determined to produce the most aldosterone and cortisol, respectively, and were selected for inhibitor screening. For testing of inhibitors, cells were harvested at 80% confluency with 0.05% Trypsan-EDTA, washed once in PBS, and reconstituted in DMEM+0.1% BSA media at a cell concentration of 600,000 cells/mL for the CYP11B2 assay and 280,000 cells/mL for the CYP11B1 assay. 25 μL of cells were added to a 384 well tissue culture treated plate and mixed with 0.3 μL of inhibitor or DMSO (1% final DMSO concentration) for 1 hour at 37° C., 5% CO2. After pre-incubation with inhibitor, the reaction was initiated by adding 5 μL of substrate (final concentration of 125 nM 11-deoxycorticosterone for the CYP11B2 assay or 250 nM 11-deoxycortisol for the CYP11B1 assay). The reaction was carried out for 3 hours at 37° C., 5% CO2 and was stopped by harvesting the supernatants. The amount of product in the supernatant (aldosterone for CYP11B2 assay and cortisol for the CYP11B1 assay) was measured using HTRF-based assay kit (Aldosterone HTRF-CisBio#64ALDPEB, Cortisol HTRF-CisBio #63IDC002-CORT). IC50s for the inhibitor were determined by plotting the amount of product formed against the concentration of inhibitor using sigmoidal dose-response curve (variable slope) fit in GraphPad.

human CYP11B1 [3] = biological target: T2, human CYP11B1; assay: V79-Human-CYP11B1 cell assay, modified protocol; conditions: V79 cells expressing human CYP11B1
Experimental: as §1
(§2) For the CYP11B2 assay, cells were reconstituted in DMEM+0.1% BSA media at a cell concentration of 600,000 cells/mL and for the CYP11B1 assay cells were reconstituted in DMEM+0.1% BSA media at a cell concentration of 280,000 cells/mL. 25 μl of cells were added to a 384 well tissue culture treated plate and mixed with […] or DMSO (1% final DMSO concentration) for 1 hour at 37° C., 5% CO2.

human CYP11B2 [4] = biological target: T1, human CYP11B2; assay: V79-Human-CYP11B2 cell assay, modified protocol; conditions: V79 cells expressing human CYP11B2
Experimental: as §1, §2

T2 sequence (P15538 25-503): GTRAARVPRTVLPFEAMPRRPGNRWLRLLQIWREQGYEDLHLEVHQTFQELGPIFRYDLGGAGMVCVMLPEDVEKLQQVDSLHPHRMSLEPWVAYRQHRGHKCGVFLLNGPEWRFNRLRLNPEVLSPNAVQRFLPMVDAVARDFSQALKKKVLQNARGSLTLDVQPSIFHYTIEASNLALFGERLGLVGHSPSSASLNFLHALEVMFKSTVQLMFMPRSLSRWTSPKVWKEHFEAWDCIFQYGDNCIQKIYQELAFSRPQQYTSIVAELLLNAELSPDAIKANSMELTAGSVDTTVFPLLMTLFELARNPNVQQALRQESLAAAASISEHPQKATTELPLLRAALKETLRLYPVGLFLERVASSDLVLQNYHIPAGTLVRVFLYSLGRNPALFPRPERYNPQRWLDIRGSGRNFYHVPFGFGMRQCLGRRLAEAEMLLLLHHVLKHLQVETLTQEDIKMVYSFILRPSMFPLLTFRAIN
T1 sequence (P19099 25-503): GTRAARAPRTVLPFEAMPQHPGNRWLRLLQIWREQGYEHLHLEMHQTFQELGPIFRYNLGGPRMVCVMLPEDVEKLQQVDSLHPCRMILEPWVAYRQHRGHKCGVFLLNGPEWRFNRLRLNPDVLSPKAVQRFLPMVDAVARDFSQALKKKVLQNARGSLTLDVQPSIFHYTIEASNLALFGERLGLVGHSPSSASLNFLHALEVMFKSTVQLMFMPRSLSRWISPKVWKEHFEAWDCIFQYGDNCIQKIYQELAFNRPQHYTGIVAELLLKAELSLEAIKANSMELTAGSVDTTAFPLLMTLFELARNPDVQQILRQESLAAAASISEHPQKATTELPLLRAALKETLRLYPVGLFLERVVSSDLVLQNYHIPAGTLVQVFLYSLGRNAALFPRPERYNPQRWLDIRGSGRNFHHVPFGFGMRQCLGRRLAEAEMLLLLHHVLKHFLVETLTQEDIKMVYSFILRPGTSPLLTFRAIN

Row | IC50 (human CYP11B2 [1]) [nM] | IC50 (human CYP11B1 [2]) [nM] | IC50 (human CYP11B1 [3]) [nM] | IC50 (human CYP11B2 [4]) [nM] | Compound
1 |  |  | 366 | 2.2 | CC(=O)N1CCc2cc(-c3cnccc3C)ccc21 [Example 58, 1-acetyl-5-(4-methylpyridin-3-yl)-2,3-dihydro-1H-indole]
2 |  |  | 3380 | 6 | CC(=S)N1CCc2cc(-c3cccnc3)ccc21 [Example 34, 1-(5-(pyridin-3-yl)indolin-1-yl)ethanethione]
3 | 35 | 1600 |  |  | CC(=O)N1CCc2cc(-c3cncc(C#N)c3C)cc(Cl)c21 [Example 10, 5-(1-acetyl-7-chloroindolin-5-yl) 4-methylnicotinotrile]
4 | 810 | 760 |  |  | CC(=O)N1CCc2cc(-c3cncc(F)c3)c(Cl)cc21 [Example 45, 1-(6-chloro-5-(5-fluoropyridine-3-yl)indolin-1-yl)ethanone]
5 |  |  | 516 | 2.8 | CCC(=O)N1CCc2cc(-c3cncc4ccccc34)ccc21 [Example 29, 4-(1-propanoyl-2,3-dihydro-1H-indol-5-yl)isoquinoline]
6 | 12 | 7900 |  |  | CC(=O)N1CCc2cc(-c3cncc(F)c3)cc(Cl)c21 [Example 2, 1-(7-chloro-5-(5-fluoropyridine-3-yl)indolin-1-yl)ethanone]
7 | 5 | 610 |  |  | CC(=O)N1CCc2cc(-c3cnccc3C(F)(F)F)cc(Cl)c21 [Example 7, 1-(7-chloro-5-(4-(trifluoromethyl)pyridine-3-yl)indolin-1-yl)ethanone]
8 |  |  | 6090 | 152 | O=C(C1CC1)N1CCc2cc(-c3cncc4ccccc34)ccc21 [Example 31, 4-[1-(cyclopropyl-carbonyl)-2,3-dihydro-1H-indol-5-yl]isoquinoline]
9 | 2.3 | 400 |  |  | CCc1c(F)cncc1-c1cc(Cl)c2c(c1)CCN2C(C)=O [Example 9, 1-(7-chloro-5-(4-ethyl-5-fluoropyridin-3-yl)indolin-1-yl)ethanone]
10 | 620 | 780 |  |  | CCc1c(F)cncc1-c1cc2c(cc1Cl)N(C(C)=O)CC2 [Example 46, 1-(6-chloro-5-(4-ethyl-5-fluoropyridine-3-yl)indolin-1-yl)ethanone]
11 |  |  | 803 | 16 | COc1cncc(-c2ccc3c(c2)CCN3C(C)=O)c1 [Example 54, 1-acetyl-5-(5-methoxypyridin-3-yl)-2,3-dihydro-1H-indole]
12 | 1 | 100 |  |  | CC(=O)N1CCc2cc(-c3cncc(F)c3C)cc(F)c21 [Example 19, 1-(7-fluoro-5-(5-fluoro-4-methylpyridine-3-yl)indolin-1-yl)-ethanone]
13 | 0.7 | 60 |  |  | CC(=O)N1CCc2cc(-c3cncc4ccccc34)cc(Cl)c21 [Example 11, 1-(7-chloro-5-(isoquinolin-4-yl)indolin-1-yl)ethanone]
14 | 170 | 4000 |  |  | CCc1c(F)cncc1-c1cc2c(cc1F)N(C(C)=O)CC2 [Example 49, 1-(5-(4-ethyl-5-fluoropyridin-3-yl)-6-fluoroindolin-1-yl)ethanone]
15 | 12 | 540 |  |  | CC(=O)N1CCc2cc(-c3cncc(C#N)c3C)cc(F)c21 [Example 17, 5-(1-acetyl-7-fluoroindolin-5-yl)-4-methylnicotino nitrile]
16 | 97 | > 10000 |  |  | CC(=O)N1CCc2cc(-c3cncc(C#N)c3)cc(F)c21 [Example 16, 5-(1-acetyl-7-fluoroindolin-5-yl)nicotinonitrile]
17 | 4.9 | 900 |  |  | CC(=O)N1CCc2cc(-c3cccnc3)cc(F)c21 [Example 12, 1-(7-fluoro-5-(pyridine-3-yl)indolin-1-yl) ethanone]

Further lines, the compound ahead of its results:

Row | Compound | IC50 (human CYP11B2 [1]) [nM] | IC50 (human CYP11B1 [2]) [nM] | IC50 (human CYP11B1 [3]) [nM] | IC50 (human CYP11B2 [4]) [nM]
18 | CC(=O)N1CCc2cc(-c3cncc(C(F)(F)F)c3)cc(Cl)c21 [Example 6, 1-(7-chloro-5-(5-(triuoromethyl)pyridine-3-yl)indolin-1-yl)ethanone] | 7.5 | 400 |  | 
19 | CC(=O)N1CCc2cc(-c3cncc(F)c3)c(F)cc21 [Example 48, 1-(6-fluoro-5-(5-fluoropyridin-3-yl)indolin-1-yl)ethanone] |  | > 10000 |  | 
20 | COc1cncc(-c2cc(Cl)c3c(c2)CCN3C(C)=O)c1 [Example 3, 1-(7-chloro-5-(5-methoxypyridin-3-yl)indolin-1-yl)ethanone] | 4.1 | 130 |  | 
21 | CC(=O)N1CCc2cc(-c3cccnc3)cc(Cl)c21 [Example 43, 1-(7-chloro-5-(pyridin-3-yl)indolin-1-yl)ethanone] | 7.4 | 570 |  | 
22 | CC(=O)n1ccc2cc(-c3cccnc3)ccc21 [Example 50, 1-Acetyl-5-pyridin-3-yl-1H-indole] |  |  | 1380 | 23
23 | CC(=O)N1CCc2cc(-c3cncc(F)c3)cc(F)c21 [Example 18, 1-(7-fluoro-5-(5-fluoropyridine-3-yl)indolin-1-yl)-ethanone] | 15 | 1100 |  | 
24 | CC(=O)N1CCc2cc(-c3cncc([C@@](C)(O)C(F)(F)F)c3)cc(Cl)c21 [Example 5, (R)-1-(7-chloro-5-(5-(1,1,1,-trifluoro-2hydroxypropan-2-yl)pyridine-3-yl)indolin-1-yl)ethanone] | 2.4 | 53 |  | 
25 | CC(=O)N1CCc2cc(-c3cncc([C@](C)(O)C(F)(F)F)c3)cc(Cl)c21 [Example 4, (S)-1-(7-chloro-5-(5-(1,1,1,-trifluoro-2-hydroxypropan-2-yl)pydine-3-yl)indolin-1-yl)ethanone] | 1.2 | 26 |  | 
26 | CC(=O)N1CCc2cc(-c3cccnc3)c(F)cc21 [Example 47, 1-(6-fluoro-5-(pyridin-3-yl)indon-1-yl)ethanone] | 180 | 380 |  | 
27 | CC(=O)N1CCc2cc(-c3cncc([C@@](C)(O)C(F)(F)F)c3)cc(F)c21 [Example 14, (R)-1-(7-fluoro-5-(5-(1,1,1-trifluoro-2-hydroxypropan-2-yl)pyridin-3-yl)indolin-1-l)ethanone] | 0.8 | 13 |  | 
28 | CC(=O)N1CCc2cc(-c3cncc([C@](C)(O)C(F)(F)F)c3)cc(F)c21 [Example 13, (S)-1-(7-fluoro-5-(5-(1,1,1-trifluoro-2-hydroxypropan-2-yl)pyridin-3-yl)indolin-1-yl)ethanone] | 2.1 | 23 |  | 
29 | CC(=O)N1CCc2cc(-c3cccnc3)c(Cl)cc21 [Example 44, 1-(6-chloro-5-(pyridin-3-yl)indoline-1-yl)ethanone] | 640 | 470 |  | 
30 | CC(=O)N1CCc2cc(-c3cncc(F)c3)ccc21 [Example 1, 1-(5-(5-fluoropyridin-3-yl)indolin-1-yl)ethanone] | 110 | > 10000 |  | 
31 | CCc1c(F)cncc1-c1cc(F)c2c(c1)CCN2C(C)=O [Example 20, 1-(5-(4-ethyl-5-fluoropyridine-3-yl)-7-fluoroindolin-1-yl)ethanone] | 1.6 | 500 |  | 
